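Five compound concentrations were applied to cells in 96-well plates for 48 hours; endpoints were derived by simple linear interpolation of the resulting dose-response curve. At the GI50, growth is halved.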 Active and inactive are the calls of the source. Rule as the data show it: active = GI50 up to about 1.1 µM and inactive = higher.
Experiments:
Experiment in all cases: NCI tumour cell line growth inhibition, 48 h
HOP-92 = test system: HOP-92
DU-145 = test system: DU-145
TK-10 = test system: TK-10
NCI-H226 = test system: NCI-H226
HL-60 = test system: HL-60
786-0 = test system: 786-0
CCRF-CEM = test system: CCRF-CEM
A498 = test system: A498
K562 = test system: K562
HOP-62 = test system: HOP-62
OVCAR-4 = test system: OVCAR-4
MDA-MB-231 = test system: MDA-MB-231
KM12 = test system: KM12
SF-268 = test system: SF-268
M14 = test system: M14
PC-3 = test system: PC-3
UACC-62 = test system: UACC-62
RXF 393 = test system: RXF 393
SK-MEL-5 = test system: SK-MEL-5
SK-MEL-2 = test system: SK-MEL-2
BT-549 = test system: BT-549
COLO 205 = test system: COLO 205
OVCAR-8 = test system: OVCAR-8
CAKI-1 = test system: CAKI-1
T47D = test system: T47D
UO-31 = test system: UO-31
U-251 = test system: U-251
MDA-N = test system: MDA-N
SK-OV-3 = test system: SK-OV-3
MDA-MB-435 = test system: MDA-MB-435
SF-295 = test system: SF-295
IGROV-1 = test system: IGROV-1
NCI-H460 = test system: NCI-H460
MCF7 = test system: MCF7
NCI-H522 = test system: NCI-H522
ACHN = test system: ACHN
SR = test system: SR
A549 = test system: A549
NCI-H23 = test system: NCI-H23
SN12C = test system: SN12C
HCT-116 = test system: HCT-116
EKVX = test system: EKVX
OVCAR-5 = test system: OVCAR-5
Malme-3M = test system: Malme-3M
SNB-19 = test system: SNB-19
HCT-15 = test system: HCT-15
RPMI-8226 = test system: RPMI-8226
SK-MEL-28 = test system: SK-MEL-28
SF-539 = test system: SF-539
NCI/ADR-RES = test system: NCI/ADR-RES
OVCAR-3 = test system: OVCAR-3
HCC 2998 = test system: HCC 2998
UACC-257 = test system: UACC-257
HT-29 = test system: HT-29
MOLT-4 = test system: MOLT-4
Hs-578T = test system: Hs-578T
SNB-75 = test system: SNB-75
SW-620 = test system: SW-620
LOX IMVI = test system: LOX IMVI

For `CO/C=C(/C(=O)OC)c1ccccc1[C@H]1C[C@@H]1c1ccccc1`, the GI50 (HOP-92) was 21.3 µM (inactive), the GI50 (DU-145) was 27.2 µM (inactive) and the GI50 (TK-10) was 28 µM (inactive). For the same compound, the GI50 (NCI-H226) was 20.5 µM (inactive), the GI50 (HL-60) was 21.9 µM (inactive) and the GI50 (786-0) was 31.7 µM (inactive). For the same compound, the GI50 (CCRF-CEM) was 10.6 µM (inactive), the GI50 (A498) was 27.9 µM (inactive) and the GI50 (K562) was 26.2 µM (inactive). The GI50 (HOP-62) was 35.2 µM (inactive), the GI50 (OVCAR-4) was 17.8 µM (inactive) and the GI50 (MDA-MB-231) was 31.6 µM (inactive). The GI50 (KM12) was 20.1 µM (inactive), the GI50 (SF-268) was 24.4 µM (inactive) and the GI50 (M14) was 19.2 µM (inactive). For the same compound, the GI50 (PC-3) was 22.8 µM (inactive), the GI50 (UACC-62) was 14.9 µM (inactive) and the GI50 (RXF 393) was 49.3 µM (inactive). For the same compound, the GI50 (SK-MEL-5) was 8.02 µM (inactive), the GI50 (SK-MEL-2) was 17.2 µM (inactive) and the GI50 (BT-549) was 20.5 µM (inactive). The GI50 (COLO 205) was 14 µM (inactive), the GI50 (OVCAR-8) was 28.7 µM (inactive) and the GI50 (CAKI-1) was 16 µM (inactive). For the same compound, the GI50 (T47D) was 18.6 µM (inactive), the GI50 (UO-31) was 29.4 µM (inactive) and the GI50 (U-251) was 23.1 µM (inactive). For the same compound, the GI50 (MDA-N) was 18.7 µM (inactive), the GI50 (SK-OV-3) was 16.7 µM (inactive) and the GI50 (MDA-MB-435) was 17.8 µM (inactive). The GI50 (SF-295) was 23.1 µM (inactive), the GI50 (IGROV-1) was 19.9 µM (inactive) and the GI50 (NCI-H460) was 19.7 µM (inactive). For the same compound, the GI50 (MCF7) was 29 µM (inactive), the GI50 (NCI-H522) was 12.9 µM (inactive) and the GI50 (ACHN) was 22.5 µM (inactive). For the same compound, the GI50 (SR) was 14.2 µM (inactive), the GI50 (A549) was 21.1 µM (inactive) and the GI50 (NCI-H23) was 23.2 µM (inactive). The GI50 (SN12C) was 28.6 µM (inactive), the GI50 (HCT-116) was 17.4 µM (inactive) and the GI50 (EKVX) was 15.4 µM (inactive). For the same compound, the GI50 (OVCAR-5) was 73.8 µM (inactive), the GI50 (Malme-3M) was 13.1 µM (inactive) and the GI50 (SNB-19) was 48.3 µM (inactive). The GI50 (HCT-15) was 23.4 µM, the GI50 (RPMI-8226) was 12.6 µM (inactive) and the GI50 (SK-MEL-28) was 25.8 µM (inactive). For the same compound, the GI50 (SF-539) was 21.2 µM (inactive), the GI50 (NCI/ADR-RES) was 24 µM (inactive) and the GI50 (OVCAR-3) was 18.5 µM (inactive). The GI50 (HCC 2998) was 20.6 µM (inactive), the GI50 (UACC-257) was 15.8 µM (inactive) and the GI50 (HT-29) was 18.6 µM (inactive). For the same compound, the GI50 (MOLT-4) was 30.1 µM (inactive) and the GI50 (Hs-578T) was 33.7 µM (inactive).
For `C#CCSc1nc(-c2ccco2)n[nH]1`, the GI50 (HOP-92) was > 100 µM (inactive), the GI50 (DU-145) was > 100 µM (inactive) and the GI50 (TK-10) was > 100 µM (inactive). For the same compound, the GI50 (NCI-H226) was > 100 µM (inactive), the GI50 (HL-60) was > 100 µM (inactive) and the GI50 (786-0) was > 100 µM (inactive). The GI50 (A498) was > 100 µM (inactive), the GI50 (K562) was > 100 µM (inactive) and the GI50 (HOP-62) was 49.3 µM (inactive). The GI50 (OVCAR-4) was > 100 µM (inactive), the GI50 (MDA-MB-231) was > 100 µM (inactive) and the GI50 (KM12) was > 100 µM (inactive). The GI50 (SF-268) was > 100 µM (inactive), the GI50 (M14) was > 100 µM (inactive) and the GI50 (PC-3) was > 100 µM (inactive). For the same compound, the GI50 (SNB-75) was > 100 µM (inactive), the GI50 (UACC-62) was > 100 µM (inactive) and the GI50 (RXF 393) was > 100 µM (inactive). The GI50 (SK-MEL-5) was > 100 µM (inactive), the GI50 (SK-MEL-2) was > 100 µM (inactive) and the GI50 (BT-549) was > 100 µM (inactive). For the same compound, the GI50 (COLO 205) was > 100 µM (inactive), the GI50 (OVCAR-8) was > 100 µM (inactive) and the GI50 (CAKI-1) was > 100 µM (inactive). The GI50 (T47D) was > 100 µM (inactive), the GI50 (UO-31) was 17.2 µM (inactive) and the GI50 (U-251) was > 100 µM (inactive). The GI50 (MDA-N) was > 100 µM (inactive), the GI50 (SK-OV-3) was > 100 µM (inactive) and the GI50 (MDA-MB-435) was > 100 µM (inactive). For the same compound, the GI50 (SF-295) was > 100 µM (inactive), the GI50 (SW-620) was > 100 µM (inactive) and the GI50 (LOX IMVI) was > 100 µM (inactive). For the same compound, the GI50 (IGROV-1) was 48.5 µM (inactive), the GI50 (NCI-H460) was > 100 µM (inactive) and the GI50 (MCF7) was > 100 µM (inactive). For the same compound, the GI50 (NCI-H522) was > 100 µM (inactive), the GI50 (ACHN) was > 100 µM (inactive) and the GI50 (SR) was > 100 µM (inactive). The GI50 (A549) was > 100 µM (inactive), the GI50 (NCI-H23) was > 100 µM (inactive) and the GI50 (SN12C) was > 100 µM (inactive). For the same compound, the GI50 (HCT-116) was > 100 µM (inactive), the GI50 (EKVX) was > 100 µM (inactive) and the GI50 (OVCAR-5) was > 100 µM (inactive). For the same compound, the GI50 (Malme-3M) was > 100 µM (inactive), the GI50 (SNB-19) was > 100 µM (inactive) and the GI50 (HCT-15) was > 100 µM. The GI50 (RPMI-8226) was > 100 µM (inactive), the GI50 (SK-MEL-28) was > 100 µM (inactive) and the GI50 (SF-539) was > 100 µM (inactive). For the same compound, the GI50 (NCI/ADR-RES) was > 100 µM (inactive), the GI50 (OVCAR-3) was > 100 µM (inactive) and the GI50 (HCC 2998) was > 100 µM (inactive). For the same compound, the GI50 (UACC-257) was > 100 µM (inactive), the GI50 (HT-29) was > 100 µM (inactive) and the GI50 (MOLT-4) was > 100 µM (inactive). The GI50 (Hs-578T) was > 100 µM (inactive).
With `COc1cc2c(cc1OC)CCN=C2` the GI50 (HOP-92) was > 100 µM (inactive), the GI50 (DU-145) was > 100 µM (inactive) and the GI50 (TK-10) was > 100 µM (inactive). For the same compound, the GI50 (NCI-H226) was > 100 µM (inactive), the GI50 (HL-60) was > 100 µM (inactive) and the GI50 (CCRF-CEM) was > 100 µM (inactive). The GI50 (A498) was > 100 µM (inactive), the GI50 (HOP-62) was > 100 µM (inactive) and the GI50 (OVCAR-4) was > 100 µM (inactive). For the same compound, the GI50 (MDA-MB-231) was > 100 µM (inactive), the GI50 (KM12) was > 100 µM (inactive) and the GI50 (M14) was > 100 µM (inactive). For the same compound, the GI50 (PC-3) was > 100 µM (inactive), the GI50 (SNB-75) was > 100 µM (inactive) and the GI50 (UACC-62) was > 100 µM (inactive). The GI50 (RXF 393) was 56.6 µM (inactive), the GI50 (SK-MEL-5) was > 100 µM (inactive) and the GI50 (SK-MEL-2) was > 100 µM (inactive). The GI50 (BT-549) was > 100 µM (inactive), the GI50 (COLO 205) was > 100 µM (inactive) and the GI50 (OVCAR-8) was > 100 µM (inactive). For the same compound, the GI50 (CAKI-1) was > 100 µM (inactive), the GI50 (T47D) was > 100 µM (inactive) and the GI50 (UO-31) was > 100 µM (inactive). The GI50 (U-251) was > 100 µM (inactive), the GI50 (MDA-N) was > 100 µM (inactive) and the GI50 (SK-OV-3) was > 100 µM (inactive). The GI50 (MDA-MB-435) was > 100 µM (inactive), the GI50 (SF-295) was > 100 µM (inactive) and the GI50 (SW-620) was > 100 µM (inactive). For the same compound, the GI50 (LOX IMVI) was > 100 µM (inactive), the GI50 (IGROV-1) was > 100 µM (inactive) and the GI50 (NCI-H460) was 66.5 µM (inactive). The GI50 (MCF7) was > 100 µM (inactive), the GI50 (SR) was > 100 µM (inactive) and the GI50 (NCI-H23) was > 100 µM (inactive). The GI50 (SN12C) was > 100 µM (inactive), the GI50 (HCT-116) was > 100 µM (inactive) and the GI50 (OVCAR-5) was > 100 µM (inactive). For the same compound, the GI50 (Malme-3M) was > 100 µM (inactive), the GI50 (SNB-19) was > 100 µM (inactive) and the GI50 (HCT-15) was > 100 µM. The GI50 (RPMI-8226) was > 100 µM (inactive), the GI50 (SK-MEL-28) was > 100 µM (inactive) and the GI50 (NCI/ADR-RES) was > 100 µM (inactive). The GI50 (OVCAR-3) was > 100 µM (inactive), the GI50 (HCC 2998) was > 100 µM (inactive) and the GI50 (UACC-257) was > 100 µM (inactive). The GI50 (HT-29) was > 100 µM (inactive), the GI50 (MOLT-4) was > 100 µM (inactive) and the GI50 (Hs-578T) was > 100 µM (inactive).

Reference: ChEMBL document CHEMBL1201862, “PubChem BioAssay data set” (2004)
